From patent US20040006236A1, “Diaminopropionic acid derivatives” (priority 1999, published 2004) come the findings set out here.

Assay [1] deals with T1, ICAM-1 binding to immobilized Mac-1 (Homo sapiens, UniProt P05107+P11215).
T1 construct: made in house; host or cells: transfected 293 cells (Mac-1)
The assay can be described thus: Mac-1/ICAM-1 screening assay (solid-phase ELISA). Conditions: read-out: Mac-1/ICAM-1 Protein-Protein Assay IC50. An outline of the steps: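 Competitive solid-phase ELISA: membrane Mac-1 from transfected 293 cells coated at 3 μg/mL in 20 mM Hepes pH 7.2/0.14 M NaCl/1 mM MnCl2; compounds (0.12 nM-20 μM, 1:4 series) plus 5dICAM-Ig (40 μg/mL, added) 2 h at 37° C. Bound ICAM-Ig detected with HRP anti-human IgG Fc, TMB, A450; IC50 reported.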
Background: ELISA stands for enzyme-linked immunosorbent assay.

Assay [2] concerns T lymphocyte proliferation (C57BI/6 spleen cells with irradiated BALB/c spleen cells). Nature of the assay: Mixed lymphocyte reaction (MLR), one-way. The settings on record: Mus musculus, T-lymphocyte; read-out: MLR IC50. The class given is cell-based, mice. An outline of the steps:
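Irradiated BALB/c spleen cells mixed with C57BI/6 spleen cells in RPMI1640/10% heat-inactivated FBS/2-mercaptoethanol, with serial antagonist dilutions; 3 days at 5% CO2. Tritiated thymidine (0.5 μCi/well) added on day 3; incorporation counted by liquid scintillation after a further 6 h.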

The subject of assay [3] is cell-surface Mac-1 adhesion to immobilized fibrinogen (HL-60 cells). Nature of the assay: Mac-1/Fibrinogen cell-based screening assay. Also noted: species or system human. The settings on record: Homo sapiens, HL-60, HL-60 cells; read-out: Mac-1/Fgn Cell based Assay IC50. An outline of the steps:
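Wells coated with fibrinogen and blocked with PVP. Labeled HL-60 cells (2×10^6 cells/mL in RPMI/0.05% BSA/0.2 mM MnCl2) preincubated with DMSO-diluted compounds for 10 min at 37° C, then left to adhere 30 min at 37° C/5% CO2. Unbound cells washed off with TBS.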

T1 sequence (P05107 23-769, other chains not shown): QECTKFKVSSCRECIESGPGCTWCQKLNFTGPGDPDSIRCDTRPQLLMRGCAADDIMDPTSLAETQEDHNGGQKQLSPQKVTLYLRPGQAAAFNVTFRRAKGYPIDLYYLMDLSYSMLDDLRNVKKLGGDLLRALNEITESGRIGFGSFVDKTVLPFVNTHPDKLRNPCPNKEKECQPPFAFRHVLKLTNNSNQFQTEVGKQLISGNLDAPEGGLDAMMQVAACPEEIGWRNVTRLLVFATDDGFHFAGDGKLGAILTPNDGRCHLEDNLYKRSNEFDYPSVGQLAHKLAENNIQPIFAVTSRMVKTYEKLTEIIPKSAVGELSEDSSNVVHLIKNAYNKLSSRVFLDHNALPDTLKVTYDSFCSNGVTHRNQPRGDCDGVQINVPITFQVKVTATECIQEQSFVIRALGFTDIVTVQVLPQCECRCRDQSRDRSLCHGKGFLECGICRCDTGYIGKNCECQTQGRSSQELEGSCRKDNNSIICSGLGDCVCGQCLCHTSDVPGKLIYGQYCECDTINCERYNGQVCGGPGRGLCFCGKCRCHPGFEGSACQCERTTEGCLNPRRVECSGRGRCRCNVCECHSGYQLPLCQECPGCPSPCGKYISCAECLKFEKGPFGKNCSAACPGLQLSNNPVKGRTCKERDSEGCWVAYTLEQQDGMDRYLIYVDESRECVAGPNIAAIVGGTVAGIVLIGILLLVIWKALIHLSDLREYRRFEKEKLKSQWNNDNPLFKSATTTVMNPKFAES

Consider `O=C(NCc1cccc(O)c1)c1ccc(C(=O)N[C@@H](CNC(=O)c2ccc[nH]2)C(=O)O)c(Cl)c1` [Example 151], for which the values for the IC50 in assay [1], in assay [2] and in assay [3] were 0.033 µM, 0.265 µM and 0.046 µM, respectively.
`O=C(NCc1cccc(O)c1)c1ccc(C(=O)N[C@@H](CNC(=O)c2sccc2Br)C(=O)O)c(Cl)c1` [Example 154]: the figures for the IC50 in assay [1], in assay [2] and in assay [3] were 0.011 µM, 0.365 µM and 0.058 µM, respectively.
On the same counts, the results for `O=C(NCc1cccc(O)c1)c1ccc(C(=O)N[C@@H](CNC(=O)c2ccc(Br)s2)C(=O)O)c(Cl)c1` [Example 155] are 0.013 µM, 0.75 µM and 0.051 µM.
Turning to `O=C(NCc1cccc(O)c1)c1ccc(C(=O)N[C@@H](CNC(=O)c2sccc2Cl)C(=O)O)c(Cl)c1` [Example 156], the IC50 in assay [1] is 0.012 µM; in assay [2], 0.465 µM; in assay [3], 0.064 µM.
For `O=C(NCc1cccc(O)c1)c1ccc(C(=O)N[C@@H](CNC(=O)c2ccc(Cl)s2)C(=O)O)c(Cl)c1` [Example 157], the IC50 in assay [1] is 0.0077 µM; in assay [2] it was 0.7 µM; in assay [3] it was 0.034 µM.
Regarding `O=C(NCc1cccc(O)c1)c1ccc(C(=O)N[C@@H](CNC(=O)c2cc(Br)c(Br)s2)C(=O)O)c(Cl)c1` [Example 158], the IC50 in assay [1] turned out to be 0.02 µM; in assay [2], 7.6 µM; in assay [3], 0.07 µM.
With `Cc1ccsc1C(=O)NC[C@H](NC(=O)c1ccc(C(=O)NCc2cccc(O)c2)cc1Cl)C(=O)O` [Example 159], the IC50 is 0.013 µM in assay [1], 0.165 µM in assay [2] and 0.036 µM in assay [3].
For `Cc1ccc(C(=O)NC[C@H](NC(=O)c2ccc(C(=O)NCc3cccc(O)c3)cc2Cl)C(=O)O)s1` [Example 160] the same measures were 0.0066 µM, 0.22 µM and 0.011 µM.
On the same counts, the results for `O=C(NCc1cccc(O)c1)c1ccc(C(=O)N[C@@H](CNC(=O)c2ccsc2)C(=O)O)c(Cl)c1` [Example 161] are 0.012 µM, 0.094 µM and 0.017 µM.
